Reference: patent US20060058296A1, “Treatment of osteolytic lesions associated with multiple myeloma by inhibition of p38 map kinase” (Scios, Inc., priority 2003, published 2006)
Counter-ions that a name gives are not always drawn.

Tests used:
VEGF = VEGF secretion from MM contact-activated BMSC; assay type: cell-based, human
From the text: p38 MAPK controls secretion of these factors in-vitro in systems representing the BM milieu.
In addition to promoting vascularization, VEGF is a growth-supporting factor for MM cells. Neovascularization of MM tumors in the marrow allows growth beyond diffusion limitations for gas and nutrient exchange. VEGF is secreted from MM contact-activated BMSC, and this secretion is inhibited by p38 MAPK inhibitor Compound 4 (FIG. 10).

[1] = test system: osteolytic lesions associated with multiple myeloma; test: Treatment of a patient with osteolytic lesions associated with multiple myeloma; assay type: in vivo, human; details: therapeutic amount
From the text: A patient is diagnosed with multiple myeloma and presents with a number of holes or osteolytic lesions. The osteolytic lesions are caused by the rapid growth of myeloma cells, which displace osteoblasts, and disrupting the balance of bone creation and destruction. […] Osteoblast activity is increased relative to osteoclast activity. Pain from bone destruction, fracture and the like is reduced. The osteolytic lesions are caused by the rapid growth of myeloma cells, which displace osteoblasts, and disrupting the balance of bone creation and destruction. […] Osteoblast activity is increased relative to osteoclast activity. Pain from bone destruction, fracture and the like is reduced.

COX-1 = target: T1, COX-1 (Homo sapiens, UniProt P23219); test: Activity of platelet-derived preparation of COX-1; assay type: biochemical
T1 construct: a platelet-derived preparation of COX-1; from tissue; host or cells: platelets
T1 sequence (P23219 24-599): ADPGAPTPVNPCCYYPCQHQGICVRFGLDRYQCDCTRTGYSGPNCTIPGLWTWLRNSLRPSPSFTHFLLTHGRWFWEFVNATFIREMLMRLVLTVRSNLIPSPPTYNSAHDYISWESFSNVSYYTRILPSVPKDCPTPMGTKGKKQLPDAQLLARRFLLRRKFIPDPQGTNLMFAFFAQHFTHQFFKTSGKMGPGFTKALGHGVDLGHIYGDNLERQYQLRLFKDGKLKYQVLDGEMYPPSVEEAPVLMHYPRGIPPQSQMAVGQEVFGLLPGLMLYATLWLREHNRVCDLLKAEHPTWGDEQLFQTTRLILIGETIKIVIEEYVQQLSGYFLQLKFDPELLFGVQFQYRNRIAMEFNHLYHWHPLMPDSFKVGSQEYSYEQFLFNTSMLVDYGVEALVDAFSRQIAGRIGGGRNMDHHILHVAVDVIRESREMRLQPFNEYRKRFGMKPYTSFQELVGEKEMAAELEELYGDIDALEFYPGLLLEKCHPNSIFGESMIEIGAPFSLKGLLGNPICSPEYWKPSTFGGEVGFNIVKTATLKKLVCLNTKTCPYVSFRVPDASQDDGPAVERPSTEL

RPMI = test: MM cell proliferation, RPMI; assay type: cell-based; details: 72-hour exposure
IM9 = test: MM cell proliferation, IM9; assay type: cell-based; details: IM9, 72-hour exposure
RANKL mRNA = RANKL mRNA in BMSC and MM/BMSC cultures; assay type: cell-based, human; details: 100 nM
Procedure: In addition, 100 nM of these p38 MAPK inhibitors blocks the weaker induction of RANKL by IL-6 in BMSC.

[2] = test system: primary murine marrow derived osteoclast precursors; test: Osteoclast differentiation, primary murine marrow derived osteoclast precursors; assay type: cell-based; details: di-hydroxy vitamin D induced differentiation; for mature osteoclast formation: 100 nM; for mature osteoclast formation prevented: increasing doses
Procedure: Inhibition of p38α MAPK prevented osteoclast differentiation in two types of standard in vitro models. In the first, primary murine marrow derived osteoclast precursors are cultured in the presence of di-hydroxy vitamin D to induce differentiation. […] In the second model, primary human marrow-derived osteoclast precursors are cultured in the presence of dihydroxy vitamin D [(OH)2D3] to induce differentiation. In both cases, 100 nM of the exemplary p38 MAPK inhibitors prevents osteoclast formation as measured by tartrate resistant acid phosphatase (TRAP) staining or by staining with 23c6 (a mature osteoclast cell surface marker)(FIG. 14).

IL-11 = test: IL-1 and TGFβ induction of IL-11 in BMSC and MM/BMSC cultures; assay type: cell-based, human; details: 100 nM
From the text: p38 MAPK controls secretion of these factors in-vitro in systems representing the BM milieu. […] IL-11 elicits pro-fibrotic responses and promotes osteoclast-driven bone resorption.

[3] = test system: arthritic lesions in the hind paws; test: Chick type II collagen arthritis in rats with established disease; assay type: in vivo, rat
Procedure: Rats treated intradermally with chick type II collagen develop arthritic lesions in the hind paws similar to human arthritic joints with respect to accumulation of pannus tissue, presence of inflammatory cells, and increased expression of inflammatory cytokines. […] Animals were scored daily by an observer blinded with respect to treatment regimen. At the completion of the study on Day 28, radiographic images were analyzed in a blinded manner, based upon the extent of soft tissue swelling, joint space narrowing, and bone destruction. Animal weights at the beginning and end of the study were also recorded, as weight loss is associated with disease progression in this model.

COX-2 enzyme = target: T2, COX-2 enzyme (Homo sapiens, UniProt P35354); test: Activity of purified COX-2 enzyme; assay type: biochemical
T2 sequence (P35354 18-604): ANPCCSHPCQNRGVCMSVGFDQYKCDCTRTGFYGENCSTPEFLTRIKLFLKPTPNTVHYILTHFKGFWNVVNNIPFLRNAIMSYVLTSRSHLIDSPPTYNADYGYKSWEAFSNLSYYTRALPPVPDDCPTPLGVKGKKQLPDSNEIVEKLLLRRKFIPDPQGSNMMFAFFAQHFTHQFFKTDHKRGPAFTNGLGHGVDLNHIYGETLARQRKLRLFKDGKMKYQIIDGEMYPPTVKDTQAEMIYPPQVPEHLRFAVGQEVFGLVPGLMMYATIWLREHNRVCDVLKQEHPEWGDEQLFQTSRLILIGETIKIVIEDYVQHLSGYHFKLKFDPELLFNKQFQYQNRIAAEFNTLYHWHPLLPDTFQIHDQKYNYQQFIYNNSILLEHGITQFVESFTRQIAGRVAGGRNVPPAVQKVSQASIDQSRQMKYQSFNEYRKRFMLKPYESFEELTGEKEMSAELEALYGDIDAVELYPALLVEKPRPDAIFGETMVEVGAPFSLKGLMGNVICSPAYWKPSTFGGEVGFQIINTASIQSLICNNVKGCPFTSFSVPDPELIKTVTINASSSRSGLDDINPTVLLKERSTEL

U266B = test: MM cell proliferation, U266B; assay type: cell-based; details: 72-hour exposure
BMSC = BMSC viability, MTS assay of respiratory activity; assay type: cell-based, human; details: tested up to 50-fold excess of active concentration
Procedure: Neither p38 MAPK inhibition nor high concentrations of p38 MAPK inhibitor (tested up to 50-fold excess of active concentration) affected BMSC viability (FIG. 4). Viability was measured using a standard enzymatic assay of respiratory activity, MTS (3-(4,5-dimethylthiazol-2-yl)-5-(3-carboxymethoxyphenyl)-2-(4-sulfophenyl)-2H-tetrazolium). Results obtained with the p38 MAPK inhibitor are in agreement with published results using a different p38α MAPK inhibitor.

COX-2 mRNA = test: LPS-induced COX-2 mRNA; assay type: cell-based, human
ARH-77 = test: MM cell proliferation, ARH-77; assay type: cell-based; details: ARH-77, 72-hour exposure
MIP-1α = MIP-1α production in MM/BMSC co-cultures; assay type: cell-based, human
From the text: MIP-1α elevation in MM patient serum correlates with disease severity. Unlike many MM-relevant cytokines present in the marrow microenvironment, which are produced mainly by the activated BMSC, MM cells are the primary source of MIP-1α. IL-1 further induces MIP-1α production.

IL-1β = test: LPS-induced IL-1β release in human whole blood; assay type: cell-based; details: human whole blood (undiluted)
From the text: IL-1β illustrates the importance of amplification loops in myeloma-induced cytokine stimulation. IL-1β plays a well-documented role in the induction of multiple cytokines in a “cytokine network” of feedback loops, including strong induction of IL-6. The ability of IL-1 to increase mRNA expression and induce secretion of the MM-relevant cytokines from MM/BMSC cultures is evidence of this role.

TNF-α = test: LPS-induced TNF-α secretion in whole blood; assay type: cell-based, human
Procedure: Other in vitro assays can assess the production of TNF-a as a correlation to p38 MAP kinase activity. One such example is a Human Whole Blood Assay. In this assay, venous blood is collected from, e.g., healthy male volunteers into a heparinized syringe and is used within 2 hours of collection. Test compounds are dissolved in 100% DMSO and 1 μl aliquots of drug concentrations ranging from 0 to 1 mM are dispensed into quadruplicate wells of a 24-well microtiter plate (Nunclon Delta SI, Applied Scientific Co., San Francisco, Calif.). Whole blood is added at a volume of 1 ml/well and the mixture is incubated for 15 minutes with constant shaking (Titer Plate Shaker, Lab-Line Instruments, Inc., Melrose Park, Ill.) at a humidified atmosphere of 5% CO2 at 37° C. Whole blood is cultured either undiluted or at a final dilution of 1:10 with RPMI 1640 (Gibco 31800+NaHCO3, Life Technologies, Rockville, Md. and Scios, Inc., Sunnyvale, Calif.). At the end of the incubation period, 10 μl of LPS (E. coli 0111:B4, Sigma Chemical Co., St. Louis, Mo.) is added to each well to a final concentration of 1 or 0.1 μg/ml for undiluted or 1:10 diluted whole blood, respectively. The incubation is continued for an additional 2 hours. The reaction is stopped by placing the microtiter plates in an ice bath, and plasma or cell-free supernates are collected by centrifugation at 3000 rpm for 10 minutes at 4° C. […]

[4] = test system: human myeloma (RPM18266) tumor; test: Human myeloma xenograft plasmacytoma model in beige-nude-xid mouse; assay type: in vivo
Procedure: The p38 MAPK signaling pathway plays an important role in different pathological conditions and specific inhibitors of p38 alpha and beta MAPK block production of the major inflammatory cytokines. Human multiple myeloma (MM) is an incurable neoplasm of terminally differentiated B cells and MM disease progression is affected by immunoregulatory elements such as IL-6 and other cytokines. […] Treatment (90 mg/kg/bid by oral gavage) is initiated in mice with palpable tumor size (˜200 mm^3) as judged by tumor volume.

PGE2 = PGE2 levels in LPS-induced human whole blood; assay type: cell-based

COC(=O)C(=O)c1cn(C(=O)c2ccc(Cl)cc2)c2cc(OC)c(C(=O)N3CCC(Cc4ccccc4)CC3)cc12 [Compound 4]
VEGF secretion (VEGF): inhibited

C[C@@H]1CN(Cc2ccc(F)cc2)[C@@H](C)CN1C(=O)c1cc2c(C(=O)C(=O)N(C)C)cn(C)c2cc1Cl [Compound 57 hydrochloride salt]
pain from bone destruction, fracture and the like [1]: reduced

C[C@@H]1CN(Cc2ccc(F)cc2)[C@@H](C)CN1C(=O)c1cc2c(C(=O)C(=O)N(C)C)cn(C)c2cc1Cl [Compound 57]
activity of a platelet-derived preparation of COX-1 (COX-1): nor did it inhibit | reduction in proliferation (RPMI): about 20% | reduction in proliferation (IM9): about 20% | basal expression of RANKL mRNA (RANKL mRNA): blocked | RANKL mRNA induction by TGFβ and IL-1 (RANKL mRNA; BMSC cultures): blocked | induction of RANKL by IL-6 (RANKL mRNA; BMSC): blocks | RANKL mRNA induction by TGFβ and IL-1 (RANKL mRNA; MM/BMSC cultures): blocked | mature osteoclast formation [2]: complete blockage | mature osteoclast formation prevented [2]: in a dose dependent manner | IL-1 and TGFβ induction of IL-11 at the mRNA and protein levels (IL-11; BMSC cultures): blocked | IL-1 and TGFβ induction of IL-11 at the mRNA and protein levels (IL-11; MM/BMSC cultures): blocked | clinical score ([3]; 10 mg/kg orally once a day): intermediate between the vehicle and 40 mg/kg groups | clinical score ([3]; 40 mg/kg orally once a day, from third day of treatment to Day 28, vs vehicle): statistically significant improvement | activity of the purified COX-2 enzyme (COX-2 enzyme): did not directly inhibit | reduction in proliferation (U266B): about 20% | BMSC viability (BMSC): Neither p38α MAPK inhibition nor high concentrations of Compound 57 (tested up to 50-fold excess of active concentration) affected BMSC viability | LPS-induced COX-2 mRNA (COX-2 mRNA): inhibited | reduction in proliferation (ARH-77): about 20% | IL-1-induced production of MIP-1α (MIP-1α): substantially reduce | untreated production of MIP-1α (MIP-1α): substantially reduce | LPS-induced IL-1β release (IL-1β): dose-dependent reduction | LPS-induced TNF-α secretion (TNF-α): dose-dependent reduction | HSP27 expression in tumor cells ([4]; mouse, in vivo): significantly reduce | p38 expression in tumor cells ([4]; mouse, in vivo): significantly reduce | tumor volume ([4]; palpable tumors (~200 mm^3), 90 mg/kg/bid oral gavage, 21 days): significantly reduced | tumor volume ([4]; treatment initiated at pronounced tumor size (~800 mm^3)): significant reduction | number of neoformed microvessels, histological assessment ([4]; vs vehicle): significant reduction | tumor volume, histological assessment at the end of dosing ([4]; vs vehicle): significant reduction | PGE2 levels (PGE2): reduced

CN(C)C(=O)C(=O)c1c[nH]c2cc(Cl)c(C(=O)N3CCC(Cc4ccc(F)cc4)CC3)cc12 [Compound 162]
mature osteoclast formation [2]: complete blockage | mature osteoclast formation prevented [2]: in a dose dependent manner
